Measured values published in ChEMBL document CHEMBL3430912, “GSK Tres Cantos Anti-Kinetoplastid Screening (TCAKS) Data”.

What was measured:
Leishmania donovani [1] = assay: (§1) GSK_TCAKS: pIC50 Leishmania donovani Imaging: THP-1 Host Macrophages. Assay plates (384-well) were prepared by adding 250nL of compound to each well. For single shot assay, the final compound concentration was 5 uM. […] Automated image analysis was performed with a script developed on Acapella High Content Imaging and Analysis Software (PerkinElmer). Output: THP-1 cell count were reported for each well.; assay type: functional, organism-based, Homo sapiens
Leishmania donovani [2] = assay: GSK_TCAKS: pIC50 Leishmania donovani viability assay using fluorescence intensity. Assay plates (1536-well) were prepared by adding 30nL per well of compound. For single shot assay, the final compound concentration was 5uM. […] Briefly, eGFP LdBOB axenic amastigotes were harvested, fixed and counted in a CASY cell counter (Roche-Applied Science). A final concentration of 1.5 * 10^5 cells per well were prepared in amastigote media containing 500 U/mL penicillin/streptomycin (Invitrogen) and 6uL was dispensed to each experimental well using a Multidrop Combi dispenser (Thermo Scientific). 6uL of assay media was dispensed to control columns used as reference for 100% compound response. Following incubation for 72 h at 37C, 5% CO2, 2 uL of resazurin was added to each well at a final concentration of 0.5 mM in phosphate buffered saline (PBS) with IGEPAL (Sigma-Aldrich), 0.05% (v/v).; assay type: functional, organism-based
Trypanosoma cruzi [3] = assay: (§2) GSK_TCAKS: pIC50 Trypanosoma cruzi Imaging: Infected Cells. […] Cells were then washed once with PBS before infection. T. cruzi trypomastigotes, collected at days 5 to 8 after infection from LLC-MK2 parasite infected cultures, were allowed to swim out for 4h at 37C from a centrifuged pellet (2,500 rpm/10 min/room temperature). Trypomastigotes were then collected and counted in a CASY Cell Counter. Trypomastigotes, in supplemented DMEM, were added to H9c2 cultures in a multiplicity of infection of 1 and incubated for 18 h. Cells were washed once with PBS before incubation of the infected H9c2 monolayer with trypsin (Life-Technologies) to detach cells from the flask. Cells were counted in a CASY Cell Counter using a 150 um capillary and their density set at 5 * 10^4 cells per mL in supplemented assay DMEM. Infected H9c2 were dispensed into 384-well poly-lysine coated assay plates at 50uL per well using a Multidrop Combi dispenser. After seeding them, the plates were incubated at 37C, 5% CO2 for 72h. Cultures were then fixed and stained by addition of 50 uL of a solution containing 8% formaldehyde and 4 uM DRAQ5 DNA dye (BioStatus, UK) per well. […] Five images were collected per well for reliable statistical analysis. Automated image analysis was performed with a script developed on Acapella High Content Imaging and Analysis Software (PerkinElmer). Output: percentage of infected cells per well as a second infection marker.; assay type: functional, organism-based, Rattus norvegicus; conditions: H9c2, 4 h
[4] = tested on: Trypanosoma brucei brucei; assay: GSK_TCAKS: pIC50 Trypanosoma brucei viability assay using luminiscence. Assay plates (1536-well) were prepared. T. brucei cultures were harvested and counted in a CASY cell counter. A parasite suspension was prepared at a final concentration of 5 * 10^4 cells/mL in complete HMI9 medium and 6uL was dispensed to all wells containing compounds using a Multidrop Combi dispenser. 6uL of HMI9 media with 0.4% DMSO were dispensed to control columns. Plates were incubated for 24 h at 37C, 5% CO2 then tempered for 10 min at room temperature. ATP content was quantified by adding 4 uL of CellTiter-Glo Reagent (Promega) according to the manufacturer's instructions. Luminescence was measured using a ViewLux.; assay type: functional, organism-based; conditions: Lister 427, CASY
[5] = target: Sterol 14-alpha demethylase (Trypanosoma cruzi (strain CL Brener), UniProt Q7Z1V1); assay: GSK_TCAKS: pIC50 CYP51 from Trypanosoma cruzi.; assay type: functional
Leishmania donovani [6] = assay: as §1, with “Amastigotes/Macrophages.” for “THP-1 Host Macrophages.”, “Average number of amastigotes per macrophage” for “THP-1”, “cell” for “cell count”; assay type: functional, organism-based, Homo sapiens; conditions: THP-1
[7] = tested on: Trypanosoma brucei brucei; assay: GSK_TCAKS: pIC50 Trypanosoma brucei viability assay using fluorescence intensity. Assay plates (1536-well) were prepared by dispensing 25nL of compound solution per well using an Echo acoustic dispenser (Labcyte).; assay type: functional, organism-based; conditions: Lister 427, 2 h
Leishmania donovani [8] = assay: as §1, with “Infected” for “THP-1 Host”, “Percent of infected macrophage cells” for “THP-1 cell count”; assay type: functional, organism-based, Homo sapiens; conditions: THP-1
[9] = GSK_TCAKS: pIC50 HepG2 human cell line viability assay using luminiscence. […] Seeding density was checked to ensure that new mono-layers were not more than 50% confluent at the time of harvesting. Cell suspension was added to 500 mL of the same medium at a final density of 1.2 * 10^5 cells/mL. This cell suspension was dispensed (25 uL, 3000 cells per well) into 384-well clear-bottom plates using a Multidrop Combi dispenser. Prior to addition of the cell suspension, the screening compounds (250 nL) were pre-dispensed into the plates with an Echo liquid handler. Plates were incubated for 48 h at 37C, 5% CO2. After incubation, plates equilibrated at room temperature for 30 min before proceeding to develop the luminescent signal. The signal developer, CellTiter-Glo Reagent, was allowed to equilibrate at room temperature for 30 min and added to the plates (25uL per well) using a Multidrop Combi dispenser. Plates were left for 10 min at room temperature for stabilization and then read using a ViewLux.; assay type: toxicity, cell-based
Trypanosoma cruzi [10] = assay: as §2, with “H2C9” for “Trypanosoma cruzi”, “H9c2 Host Cardiomyocytes.” for “Infected Cells.”, “Number” for “percentage”, “H9c2 Host Cardiomyocytes nuclei to determine drug-related cytotoxicity.” for “infected cells per well as a second infection marker.”; assay type: functional, organism-based, Rattus norvegicus; conditions: H9c2, 4 h
Trypanosoma cruzi [11] = assay: GSK_TCAKS: pIC50 Trypanosoma cruzi Imaging: Amastigotes/Cell. […] Cells were then washed once with PBS before infection. T. cruzi trypomastigotes, collected at days 5 to 8 after infection from LLC-MK2 parasite infected cultures, were allowed to swim out for 4h at 37C from a centrifuged pellet (2,500 rpm/10 min/room temperature). Trypomastigotes were then collected and counted in a CASY Cell Counter. Trypomastigotes, in supplemented DMEM, were added to H9c2 cultures in a multiplicity of infection of 1 and incubated for 18 h. Cells were washed once with PBS before incubation of the infected H9c2 monolayer with trypsin (Life-Technologies) to detach cells from the flask. Cells were counted in a CASY Cell Counter using a 150 um capillary and their density set at 5 * 10^4 cells per mL in supplemented assay DMEM. Infected H9c2 were dispensed into 384-well poly-lysine coated assay plates at 50uL per well using a Multidrop Combi dispenser. After seeding them, the plates were incubated at 37C, 5% CO2 for 72h. Cultures were then fixed and stained by addition of 50 uL of a solution containing 8% formaldehyde and 4 uM DRAQ5 DNA dye (BioStatus, UK) per well. […] Five images were collected per well for reliable statistical analysis. Automated image analysis was performed with a script developed on Acapella High Content Imaging and Analysis Software (PerkinElmer). Output: number of amastigotes per cell as infection level measurement.; assay type: functional, organism-based, Rattus norvegicus; conditions: H9c2, 4 h
Trypanosoma cruzi [12] = assay: GSK_TCAKS: pIC50 Trypanosoma cruzi viability assay using beta-GAL activity. This assay was run at single shot at 5uM compound concentration per well. The biological reagents consisted of NIH-3T3 host cells and trypomastigotes parasitic cells; both cell types were set to a 3.3 * 10^5 cells/mL dilution in assay DMEM by means of a CASY cell counter device using a 60um capillary. 6 uL of the mixture were dispensed per well (about 1 * 10^3 host-cells and 1 * 10^3 parasites) with a Multidrop Combi dispenser. […] In all wells, the percentage of DMSO never exceeded 0.5%. Plates incubated for four days at 37C, 5% CO2. The substrate used for the assay fluorescence intensity (FLINT) readout was resorufin-beta-D-galactopiranoside (Sigma-Aldrich) at 5uM per well. It was diluted in PBS supplemented with the soft detergent Igepal (Fluka).; assay type: functional, organism-based, Mus musculus; conditions: Tulahuen, NIH3T3

Chain of Sterol 14-alpha demethylase (Q7Z1V1 whole entry): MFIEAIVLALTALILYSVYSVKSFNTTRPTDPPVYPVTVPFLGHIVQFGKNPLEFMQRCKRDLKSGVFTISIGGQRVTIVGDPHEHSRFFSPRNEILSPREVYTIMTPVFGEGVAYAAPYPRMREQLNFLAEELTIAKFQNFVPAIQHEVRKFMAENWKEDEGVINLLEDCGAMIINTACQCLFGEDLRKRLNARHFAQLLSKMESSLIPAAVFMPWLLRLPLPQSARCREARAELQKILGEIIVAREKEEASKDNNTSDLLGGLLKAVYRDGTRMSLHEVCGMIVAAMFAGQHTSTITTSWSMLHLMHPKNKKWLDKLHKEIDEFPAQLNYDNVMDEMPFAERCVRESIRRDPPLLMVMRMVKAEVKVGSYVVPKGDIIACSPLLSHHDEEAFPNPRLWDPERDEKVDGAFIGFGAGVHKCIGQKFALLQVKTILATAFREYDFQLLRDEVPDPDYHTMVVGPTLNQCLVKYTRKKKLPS

Compound	IC50 (Leishmania donovani [1])	IC50 (Leishmania donovani [2])	IC50 (Trypanosoma cruzi [3])	IC50 [4]	IC50 [5]	IC50 (Leishmania donovani [6])	IC50 [7]	IC50 (Leishmania donovani [8])	IC50 at 48 h [9]	IC50 (Trypanosoma cruzi [10])	IC50 (Trypanosoma cruzi [11])	IC50 (Trypanosoma cruzi [12])
O=C(Nc1nc(-c2ccccn2)cs1)c1ccc(S(=O)(=O)N2CCCCC2)cc1	12.6 µM	0.631 µM	0.631 µM	0.631 µM	6.31 µM	1 µM	0.398 µM	1.26 µM	63.1 µM	2.51 µM	0.398 µM	0.631 µM
Cc1ccccc1NS(=O)(=O)c1ccc2[nH]cc(C(=O)NC3CCCCC3)c(=O)c2c1	31.6 µM	> 50.1 µM	15.8 µM	0.316 µM	10 µM	39.8 µM	0.251 µM	39.8 µM	31.6 µM	25.1 µM	10 µM	10 µM
Cc1ccc(NC(=O)c2ccc([N+](=O)[O-])s2)cc1S(=O)(=O)N1CCOCC1	39.8 µM	2 µM	0.398 µM	0.794 µM	20 µM	2 µM	0.251 µM	3.16 µM	15.8 µM	5.01 µM	0.251 µM	0.2 µM
COCCn1c(-c2ccc3c(c2)OCO3)cnc1NCc1ccccc1OC	39.8 µM	12.6 µM	20 µM	25.1 µM	5.01 µM	5.01 µM	20 µM	10 µM	39.8 µM	39.8 µM	7.94 µM	7.94 µM
COCCn1c(-c2ccccc2)cnc1NCc1ccccc1OC	50.1 µM	> 50.1 µM	15.8 µM	15.8 µM	7.94 µM	6.31 µM	25.1 µM	6.31 µM	20 µM	> 50.1 µM	6.31 µM	14.1 µM
O=C(Nc1nccs1)c1ccccc1Cn1cc([N+](=O)[O-])cn1	> 50.1 µM	> 50.1 µM	> 50.1 µM	0.501 µM	> 100 µM	> 50.1 µM	0.316 µM	> 50.1 µM	> 100 µM	> 50.1 µM	> 50.1 µM	> 50.1 µM
c1ccc(CNc2cccc3ccncc23)cc1	50.1 µM	10 µM	6.31 µM	> 39.8 µM	0.1 µM	5.01 µM	25.1 µM	7.94 µM	> 100 µM	> 50.1 µM	5.01 µM	6.31 µM
CCN(CC)S(=O)(=O)c1ccc(OC)c(NC(=O)c2ccc([N+](=O)[O-])s2)c1	> 50.1 µM	> 50.1 µM	0.158 µM	0.631 µM	31.6 µM	> 50.1 µM	0.398 µM	> 50.1 µM	> 100 µM	> 50.1 µM	0.126 µM	0.251 µM
NS(=O)(=O)c1ccc(CNC(=O)c2ccc([N+](=O)[O-])s2)cc1	39.8 µM	31.6 µM	5.01 µM	0.251 µM	39.8 µM	12.6 µM	0.251 µM	25.1 µM	15.8 µM	20 µM	0.794 µM	1 µM
Cc1ccccc1NS(=O)(=O)c1ccc2[nH]cc(C(=O)NC3CCCC3)c(=O)c2c1	31.6 µM	> 50.1 µM	31.6 µM	0.631 µM	12.6 µM	39.8 µM	0.316 µM	> 50.1 µM	25.1 µM	20 µM	25.1 µM	25.1 µM
C[C@@H](Oc1cc(-n2cnc3ccc(C(O)CO)cc32)sc1C(N)=O)c1ccccc1C(F)(F)F (some centres undefined)	15.8 µM	15.8 µM	20 µM	0.794 µM	25.1 µM	12.6 µM	0.398 µM	20 µM	> 10 µM	0.631 µM	15.8 µM	5.01 µM
COc1cccc(S(=O)(=O)Nc2ccc3c(c2)CC(N2CCC(NC(=O)C4CC4)CC2)C3)c1 (centres undefined)	> 50.1 µM	> 50.1 µM	> 50.1 µM	0.794 µM	63.1 µM	25.1 µM	1 µM	> 50.1 µM	> 100 µM	> 50.1 µM	31.6 µM	39.8 µM
O=C(NC1CCN(C2Cc3ccc(NS(=O)(=O)c4cc(F)cc(F)c4)cc3C2)CC1)C1CC1 (centres undefined)	12.6 µM	25.1 µM	> 50.1 µM	0.794 µM	50.1 µM	12.6 µM	1 µM	> 50.1 µM	> 100 µM	> 50.1 µM	> 50.1 µM	> 50.1 µM
COc1cccc(C(=O)[C@H]2C[C@@H]2CN(Cc2ccccn2)Cc2ccccn2)c1	> 50.1 µM	7.94 µM	1.26 µM	20 µM	31.6 µM	1.58 µM	15.8 µM	2 µM	> 100 µM	20 µM	0.794 µM	1.26 µM
O=C(CC1(O)C(=O)N(Cc2ccccc2)c2ccc(Br)cc21)c1cccnc1 (centres undefined)	39.8 µM	> 50.1 µM	25.1 µM	0.794 µM	3.98 µM	31.6 µM	0.631 µM	> 50.1 µM	63.1 µM	3.16 µM	20 µM	5.01 µM
O=C(Nc1ccc(-c2nc3ccccc3c(=O)[nH]2)cc1)c1cccs1	> 50.1 µM	> 50.1 µM	> 50.1 µM	1 µM	> 100 µM	> 50.1 µM	0.251 µM	> 50.1 µM	> 100 µM	> 50.1 µM	> 50.1 µM	3.16 µM
O=C(c1ccc(Cl)cc1)c1ccc(OC(=O)N2CCOCC2)cc1	> 50.1 µM	6.31 µM	> 50.1 µM	> 39.8 µM	39.8 µM	2 µM	7.94 µM	5.01 µM	> 100 µM	> 50.1 µM	6.31 µM	12.6 µM
